Reference: US20150126467A1, “USE OF ALGINATE OLIGOMERS TO ENHANCE THE EFFECTS OF ANTIFUNGAL AGENTS” (AlgiIPharma AS, priority 2011, published 2015)
In brackets after ≈: the same amount, converted by molar mass. Like-named read-outs stand apart in the source and are kept apart here.

Experiments:
Format in all cases: cell-based
[1] = test system: various Aspergillus species; assay: Robotic MIC assay, summary over species (Example 4); conditions: Aspergillus species tested
Method: Aspergillus sp. was grown at 30° C. for 96 h on YM-agar. Spores and aerial mycelium was cut out from the agar, suspended in 1 ml YM-broth and dispersed with glass beads (1 mm) in a mini bead beater for 2 min. Glycerol was added to the suspension to 10% and frozen at −80° C.
Each batch of frozen stock culture was then characterized in separate growth experiments using Mueller-Hinton broth to determine the minimum amount of inoculum giving satisfactory growth after 48 h under the conditions relevant for the MIC assay. This inoculation procedure is used in order to reduce day to day variation in bioassays.
Robotic minimum inhibitory concentration (MIC) assay was performed as follows. OligoG CF-5/20 was dissolved in medium (Mueller-Hinton broth) to 1.25 times of the desired assay concentrations (2, 6 and 10%). […].
(§1) Two-fold serial dilutions of antifungal agents were made in medium with different concentrations of OligoG CF-5/20, and the solutions were placed in four parallel wells in Nunc 384-well micro plates (30 μl per well in Nunc 242757 microplates). A group of 8 wells with no addition of antifungal agents for each OligoG CF-5/20 concentration was included on each micro plate as growth reference. Each well in the 384-well assay plates was added 7.5 μl of the MH medium inoculated with frozen stock culture of the relevant strains.
The microplates were placed in plastic bags and incubated without shaking at 34° C. The optical density at 600 nm in the microwells was measured after approximately 24 and 48 hours of incubation. […]

[2] = test system: Cryptococcus neoformans CCUG 23451; assay: Robotic MIC assay, Cryptococcus neoformans (Example 6); conditions: for MIC: Cryptococcus neoformans, read-out: Minimum Inhibitory Concentration (MIC); for effect on MIC when OligoG is added to the medium: media: RPMI with 2% glucose
Method: Cryptococcus sp. was grown at 30° C. for 96 h on YM-agar. Spores and aerial mycelium was cut out from the agar, suspended in 1 ml YM-broth and dispersed with glass beads (1 mm) in a mini bead beater for 2 min. The suspension was added glycerol to 10% and frozen at −80° C. Each batch of frozen stock culture was then characterized in separate growth experiments using Mueller-Hinton and RPMI to determine the minimum amount of inoculum giving satisfactory growth after 48 h under the conditions relevant for the MIC assay. This inoculum procedure is used in order to reduce day to day variation in bioassays.
Robotic minimum inhibitory concentration (MIC) assay was performed as follows. OligoG CF-5/20 was dissolved in medium (Mueller-Hinton, RPMI with 2% glucose, Sabouraud or YM) to 1.25 times of the desired assay concentrations (2, 6 and 10%). […].
as §1, with “the” for “the MH”, “innoculated” for “inoculated”
The microplates were placed in plastic bags and incubated without shaking at 34° C. The optical density at 600 nm in the microwells was measured after certain time points from 24 h to 96 h of incubation. […]

[3] = test system: C. tropicalis 544123 (urinary); assay: Robotic MIC assay, Candida strains (Example 2); conditions: Candida tropicalis, 48 h, Mueller-Hinton broth, read-out: Minimum Inhibitory Concentration (MIC)
Method: (§2) A robotic MIC Assay was performed as follows. OligoG CF-5/20 were dissolved in medium (Mueller-Hinton broth or M19 broth depending on experiment) to 1.25 times of the desired assay concentrations (2, 6 and 10%). The antifungal agents under test were dissolved in medium without OligoG CF-5/20 and in medium with OligoG CF-5/20 at a concentration of 1.25 times the highest desired assay concentrations. For experiments where the effect of adding different concentrations of Na^+ was investigated, NaCl was dissolved in medium to the desired concentrations (10, 30 and 50 mM).
(§3) Two-fold serial dilutions of antifungal agents were made in medium with different concentrations of OligoG CF-5/20, and the solutions were placed in four parallel wells in Nunc 384-well micro plates (30 μl per well in Nunc 242757 microplates). A group of 8 wells with no addition of antifungal agents for each OligoG CF-5/20 concentration was included on each microplate as growth reference. To each well in the 384-well assay plates was added 7.5 μl of medium inoculated with a frozen stock culture of Candida albicans (strain CCUG 39343).
(§4) The micro plates were placed in plastic bags and incubated without shaking at 34° C. The optical density at 600 nm in the microwells was measured after approximately 13, 18, 24 and 34 hours of incubation, and the relative growth yield in each well was calculated based on the growth in the reference groups.
(§5) The robotic assay described in Example 1 was employed in this Example. Strains were grown in Mueller-Hinton broth (LAB114 from Lab M Limited) and MIC values (μg ml-1) were determined for each antifungal after incubation for 48 h in the presence of 0, 2, 6 and 10% OligoG CF-5/20 G-fragments. […] OligoG CF-5/20 G-fragments were provided by AlgiPharma AS, Norway.
(§6) Candida strains used were as follows: • C. albicans CCUG 39343 (strain from culture collection) • C. parapsillosis ATCC 22019T (strain from culture collection) • C. krusei 141/03 (candidosis) • C. krusei 249/03(2) (ulceration) • C. lusitaniae 994/01(2) (candidosis) • C. tropicalis 12 (vaginal) • C. tropicalis 75 (vaginal) • C. tropicalis 519468 (urinary) • C. tropicalis 544123 (urinary) • C. tropicalis 250/03 (candidosis) • C. tropicalis AG1 (oral) • C. tropicalis T2.2 (oral)

[4] = test system: C. tropicalis AG1 (oral); assay: Robotic MIC assay, Candida strains (Example 2); conditions: Candida tropicalis, 48 h, Mueller-Hinton broth, read-out: Minimum Inhibitory Concentration (MIC)
Method: as §2, §3, §4, §5, §6

[5] = test system: C. tropicalis 12 (vaginal); assay: Robotic MIC assay, Candida strains (Example 2); conditions: Candida tropicalis, 48 h, Mueller-Hinton broth, read-out: Minimum Inhibitory Concentration (MIC)
Method: as §2, §3, §4, §5, §6

[6] = test system: C. krusei 249/03(2) (ulceration); assay: Robotic MIC assay, Candida strains (Example 2); conditions: Pichia kudriavzevii, 48 h, Mueller-Hinton broth, read-out: Minimum Inhibitory Concentration (MIC)
Method: as §2, §3, §4, §5, §6

[7] = CCUG23451, 72 h, RPMI 2% GLU, 0% OligoG, 72 hours
[8] = CCUG23451, 72 h, RPMI 2% GLU, 2% OligoG, 72 hours
[9] = CCUG23451, 72 h, RPMI 2% GLU, 6% OligoG, 72 hours
[10] = CCUG23451, 72 h, Sabouraud, 0% OligoG, 72 hours
[11] = CCUG23451, 72 h, Sabouraud, 2% OligoG, 72 hours
[12] = CCUG23451, 72 h, Sabouraud, 6% OligoG, 72 hours
[13] = CCUG23451, 72 h, YM, 0% OligoG, 72 hours
[14] = CCUG23451, 72 h, YM, 2% OligoG, 72 hours
[15] = CCUG23451, 96 h, MH, 0% OligoG, 96 hours
[16] = CCUG23451, 96 h, MH, 2% OligoG, 96 hours
[17] = CCUG23451, 96 h, RPMI 2% GLU, 0% OligoG, 96 hours
[18] = CCUG23451, 96 h, RPMI 2% GLU, 2% OligoG, 96 hours
[19] = CCUG23451, 96 h, RPMI 2% GLU, 6% OligoG, 96 hours
[20] = CCUG23451, 96 h, RPMI 2% GLU, 10% OligoG, 96 hours
[21] = CCUG23451, 96 h, Sabouraud, 0% OligoG, 96 hours
[22] = CCUG23451, 96 h, Sabouraud, 2% OligoG, 96 hours
[23] = CCUG23451, 96 h, Sabouraud, 6% OligoG, 96 hours
[24] = CCUG23451, 96 h, YM, 0% OligoG, 96 hours
[25] = CCUG23451, 96 h, YM, 2% OligoG, 96 hours

Row | SMILES | MIC [2, 7] [mg/L] | MIC [2, 8] [mg/L] | MIC [2, 9] [mg/L] | MIC [2, 10] [mg/L] | MIC [2, 11] [mg/L] | MIC [2, 12] [mg/L] | MIC [2, 13] [mg/L] | MIC [2, 14] [mg/L] | MIC [2, 15] [mg/L] | MIC [2, 16] [mg/L] | MIC [2, 17] [mg/L] | MIC [2, 18] [mg/L] | MIC [2, 19] [mg/L] | MIC [2, 20] [mg/L] | MIC [2, 21] [mg/L] | MIC [2, 22] [mg/L] | MIC [2, 23] [mg/L] | MIC [2, 24] [mg/L] | MIC [2, 25] [mg/L] | effect on MIC when OligoG is added to the medium ([2]; MH, Sabouraud, YM) | also measured
1 | C[C@@H]1[C@H](O)[C@@H](C)/C=C/C=C/C=C/C=C/C=C/C=C/C=C/[C@H](O[C@@H]2O[C@H](C)[C@@H](O)[C@H](N)[C@@H]2O)C[C@@H]2O[C@](O)(C[C@@H](O)C[C@@H](O)[C@H](O)CC[C@@H](O)C[C@@H](O)CC(=O)O[C@H]1C)C[C@H](O)[C@H]2C(=O)O [Amphotericin B, amphotericin B] | > 1.5 | 1.5 (≈ 1.62 µM) | 0.75 (≈ 0.812 µM) | 0.188 (≈ 0.203 µM) | 0.0938 (≈ 0.101 µM) | 0.0117 (≈ 0.0127 µM) | > 1.5 | 1.5 (≈ 1.62 µM) | 1.5 (≈ 1.62 µM) | 0.188 (≈ 0.203 µM) | > 1.5 | > 1.5 | 1.5 (≈ 1.62 µM) | 0.75 (≈ 0.812 µM) | 0.375 (≈ 0.406 µM) | 0.0938 (≈ 0.101 µM) | 0.0234 (≈ 0.0253 µM) | > 1.5 | 1.5 (≈ 1.62 µM) | reduction in MIC in all media tested | effect of addition of OligoG CF-5/20 on MIC values [1]: reduction in MIC values
2 | OC(Cn1cncn1)(Cn1cncn1)c1ccc(F)cc1F [Fluconazole, fluconazole] | 2 (≈ 6.53 µM) | 1 (≈ 3.27 µM) | 0.5 (≈ 1.63 µM) | 1 (≈ 3.27 µM) | 0.5 (≈ 1.63 µM) | 0.5 (≈ 1.63 µM) | 1 (≈ 3.27 µM) | 0.5 (≈ 1.63 µM) | 2 (≈ 6.53 µM) | 0.5 (≈ 1.63 µM) | 2 (≈ 6.53 µM) | 1 (≈ 3.27 µM) | 1 (≈ 3.27 µM) | 1 (≈ 3.27 µM) | 1 (≈ 3.27 µM) | 0.5 (≈ 1.63 µM) | 0.5 (≈ 1.63 µM) | 1 (≈ 3.27 µM) | 1 (≈ 3.27 µM) | reduction in MIC in all media tested | MIC ([3]; 0% OligoG): 1 mg/L (≈ 3.27 µM); MIC ([3]; 2% OligoG): 1 mg/L (≈ 3.27 µM); MIC ([3]; 6% OligoG): 0.5 mg/L (≈ 1.63 µM); MIC ([3]; 10% OligoG): 0.25 mg/L (≈ 0.816 µM); MIC ([4]; 0% OligoG): 128 mg/L (≈ 418 µM); MIC ([4]; 2% OligoG): > 128 mg/L; MIC ([4]; 6% OligoG): 0.5 mg/L (≈ 1.63 µM); MIC ([4]; 10% OligoG): 0.125 mg/L (≈ 0.408 µM); MIC ([5]; 0% OligoG): 1 mg/L (≈ 3.27 µM); MIC ([5]; 2% OligoG): 1 mg/L (≈ 3.27 µM); MIC ([5]; 6% OligoG): < 0.125 mg/L; MIC ([5]; 10% OligoG): < 0.125 mg/L; MIC ([6]; 0% OligoG): 8 mg/L (≈ 26.1 µM); MIC ([6]; 2% OligoG): 4 mg/L (≈ 13.1 µM); MIC ([6]; 6% OligoG): 2 mg/L (≈ 6.53 µM); MIC ([6]; 10% OligoG): 1 mg/L (≈ 3.27 µM)
